From EP0358154B1, “Novel cyclobutane derivative and process for producing same” (NIPPON KAYAKU KABUSHIKI KAISHA, priority 1988, dated 1990)
In brackets after ≈: the same amount, converted by molar mass. Where two headings read alike, the source gives them in different places.

Columns and labels:
[1] = tested on: herpes simplex virus type 2 (HSV-2); assay: HSV-2 infection in mice, survival (Experimental Example 6); format: in vivo, Balb/c mice; details: for Means survival time / Survivors/Total: once a day for 10 days, monitored 20 days
Experimental: Activity of the sample (compound No. 2) against herpes simplex virus type 2 (HSV-2) infection was examined in mice. Balb/c mice (6 week-old, male) were inoculated intraperitoneally (l.p.) with HSV-2 strain 186 at 4.8 x 10^5 PFU/0.2 ml per mouse. The sample was formulated in saline and applied either orally (p.o.) or i.p. at the indicated doses once a day for 10 days, starting 6 hrs after virus infection. The mortality was monitored for 20 days after inoculation. Efficacy of the sample was indicated as extension of survival time and number of survivors. Aciclovir (ACV: commercialized antiviral agent) was used as reference sample.

[2] = tested on: human cervical cancer HeLa S3 cell; assay: Growth inhibition of HeLa S3 cells, Methylene Blue dyeing (Method 5); format: cell-based; details: read-out: IC50(µg/ml) HeLaS3
Experimental: Carcinostatic activities on human cervical cancer HeLa S3 cell, mouse leukemia L1210 cell and […] cell were examined by the following methods. HeLa S3 cell was made into a suspension (7.5 x 10^3 cells/ml). The suspension was spread on a 96-well flat plate at a rate of 0.2 ml/well. After culturing it at 37°C for 24 hours in 5% carbon dioxide incubator, 10 microliters of a sample was added and cultivation was carried out for 72 hours. Then, culture fluid was taken out from each well and immobilized with methanol, after which 0.1 ml/well of 0.05% Methylene Blue/10 mM-Tris-HCl (pH 8.5) solution was added and dyeing was carried out at room temperature for 30 minutes. The dyed fluid in each well was withdrawn by means of aspirator and three times washed with pure water. Then, 3% HCl was added at a rate of 0.2 ml/well and the resulting mixture was sealed and allowed to stand at room temperature for about 24 hours, to extract pigment from the cells. Optical absorbance of each well at 660 nm was measured by means of […] Microplate Reader, from which growth inhibitory rate (%) at varied concentration was calculated according to the following equation. […] Growth inhibitory rate (%) = (1 - A1 /A0 ) x 100 [formula] wherein A1 = Absorbance in the treated group, A0 = Absorbance in the control group.

[3] = tested on: human Cytomegalovirus (HCMV); assay: Anti-HCMV plaque formation inhibition on human embryonal fibroblast (Method 2); format: cell-based; details: read-out: IC50(µg/ml) HCMV
Experimental: Antiviral activity against human Cytomegalovirus (HCMV) belonging to DNA virus was examined by the following method.
Anti-HCMV activity was determined in the following manner. Thus, a 35 mm dish having a single layer of human embryonal fibroblast was infected with 100 PFU of HCMV (A0169 strain). After adsorption for one hour, one layer of a medium (0.5% agarose, 2% fetal calf serum) containing a varied concentration of sample compound was superposed thereon, and cultivation was carried out at 37°C for 10 days in 5% (v/v) carbon dioxide incubator. Then, formation of plaque was measured, from which 50% inhibitory value (IC50) was determined.

[4] = tested on: Human Immunodeficiency Virus (HIV); assay: Anti-HIV activity in MT-4 cells, virus antigen by fluorescent antibody method (Method 4); format: cell-based; details: Human immunodeficiency virus 1, MT4, 96 h, read-out: IC50(µg/ml) HIV
Experimental: Antiviral activity against Human Immunodeficiency Virus (HIV) belonging to […] was examined by the following method.
MT-4 cell (about 50,000 cells/ml) was introduced into a 24-well tray, to which was added […] of a solution containing a predetermined quantity of sample compound. Culture was carried out at 37°C for 2 hours in 5% (v/v) carbon dioxide incubator. Then, 10^3 to 10^4 infection units of HIV was added and cultured for 4 days, after which a part of the culture fluid was applied onto a slide glass and immobilized with acetone and development of virus antigen was tested by fluorescent antibody method.
As the primary antibody of fluorescent antibody method, serum of AIDS patient was used. As the secondary antibody, […] was used.

[5] = tested on: simple Herpes 1 type virus (HSV-I); assay: Plaque formation inhibition, HSV-I on Vero cell monolayer (Method 1); format: cell-based; details: read-out: IC50(µg/ml) HSV-1
Experimental: (§1) Antiviral activities against simple Herpes 1 type virus (HSV-I) and simple Herpes 2 type virus (HSV-II), both belonging to DNA virus, were examined by the following methods.
(§2) A 6-well multi-plate having a single layer of Vero cell (derived from the kidney cell of African Green-Monkey was infected with 100 to 150 PFU (plaque forming units) of virus. After adsorption at 37°C for one hour, a layer of agar medium (Eagle MEM medium containing 1.5% of agar) containing a varied concentration of sample was superposed thereon, and a cultivation was carried out at 37°C for 48 hours in 5% (v/v) carbon dioxide incubator. The formation of plaque was measured, from which 50% inhibitory value (IC50) was determined.

human leukemia P388 cell = assay: Growth inhibition of P388 cells, cell counting (Method 6); format: cell-based; details: read-out: IC50(µg/ml) P388
Experimental: (§3) Carcinostatic activities on human cervical cancer HeLa S3 cell, mouse leukemia L1210 cell and […] cell were examined by the following methods. Cells of P388 and L1210 were spread onto a 24-well plate. After adding a sample, it was cultured at 37°C for 48 hours in 5% CO2 incubator. After the culture, the number of cells was counted by means of […]. The growth inhibitory rate in the treated group, based on that in the control group, was calculated from the following equation, from which 50% inhibitory concentration (CI50, micrograms/ml) was determined: The results obtained are as shown in Table 3. Growth inhibitory rate (%) = [1-(NT -NO )/NC -NO ] x 100 [formula] wherein NT = Cell number in treated group NO = cell number at the start of culture NC = Cell number in control group Table 3

[6] = tested on: mouse leukemia L1210 cell; assay: Growth inhibition of L1210 cells, cell counting (Method 6); format: cell-based; details: read-out: IC50(µg/ml) L1210
Experimental: as §3

B hepatitis virus (HBV) = assay: Anti-HBV activity in HB611 liver cells, HBV DNA by Southern method (Method 3); format: cell-based; details: read-out: IC50(µg/ml) HBV
Experimental: Antiviral activity against B hepatitis virus (HBV) belonging to DNA virus was examined by the following method.
According to the procedure of Dulbecco (Proc. Natl. Acad. Sci. USA, 84, 444 (1987)), cultured liver cell strain HB611 producing and releasing active B hepatitis virus was cultured in a modified Eagle medium (GIBCO) at 37°C at a CO2 concentration of 5% in the presence of 10% fetal calf serum, 200 micrograms/ml of G418, 100 µ/ml of Penicillin and 100 µ/ml of Streptomycin. The culture fluid was inoculated onto a 6-well plate at a rate of 5 x 10^4 cells/well (35 mm). One or two days after, 50% confluence was reached, when a predetermined quantity of sample compound was added and cultivation was continued. Thereafter, cultivation was continued for 15 days, while refreshing the medium with a fresh medium containing the same concentrations of the chemicals at intervals of 3 days. Then, the medium was removed, and the cell bodies were treated with 0.5 ml of Lysis buffer (10 mM Tris HCl, pH 7.8/5 mM Na2EDTA, 1% SDS/0.1 mg/ml […]) at 37°C for one hour and dissolved thereinto. The DNA thus obtained was purified by RNase treatment, phenolchloroform treatment and ethanol precipitation.
Then, 5 micrograms of DNA was subjected to Hind III treatment, and DNA pattern was analyzed according to Southern method by using ^32P-labelled B hepatitis virus DNA as a probe.

[7] = tested on: simple Herpes 2 type virus (HSV-II); assay: Plaque formation inhibition, HSV-II on Vero cell monolayer (Method 1); format: cell-based; details: read-out: IC50(µg/ml) HSV-2
Experimental: as §1, §2

## Nc1nc2c(ncn2COCCO)c(=O)[nH]1 [ACV, Aciclovir, reference compound]
[1]; i.p., 12.5 mg/kg/day
  Means survival time: 11.1 days
  Survivors/Total: 1/10
[1]; i.p., 25 mg/kg/day
  Means survival time: 12.7 days
  Survivors/Total: 1/10
[1]; i.p., 50 mg/kg/day
  Means survival time: 16.1 days
  Survivors/Total: 5/10
[1]; i.p., 100 mg/kg/day
  Means survival time: 5.4 days
  Survivors/Total: 2/10
[1]; p.o., 12.5 mg/kg/day
  Means survival time: 9.3 days
  Survivors/Total: 0/10
[1]; p.o., 25 mg/kg/day
  Means survival time: 11.1 days
  Survivors/Total: 0/10
[1]; p.o., 50 mg/kg/day
  Means survival time: 14.8 days
  Survivors/Total: 4/10
[1]; p.o., 100 mg/kg/day
  Means survival time: 14.3 days
  Survivors/Total: 2/10

## Nc1nc2c(ncn2[C@@H]2C[C@H](CO)[C@H]2CO)c(=O)[nH]1 [Compound 2, 9-[(1R,2R,3S)-2,3-Bis(hydroxymethyl)cyclobutane-1-yl] -guanine]
[2]; HeLa S3, 72 h
  IC50: 19 µg/mL (≈ 71.6 µM)
[3]; Human betaherpesvirus 5, Fibroblast, 240 h
  IC50: 0.4 µg/mL (≈ 1.51 µM)
[4]
  IC50: 0.3 µg/mL (≈ 1.13 µM)
[5]; Human alphaherpesvirus 1, Vero, 48 h
  IC50: 0.03 µg/mL (≈ 0.113 µM)
Human leukemia P388 cell; P388, 48 h
  IC50: 1.6 µg/mL (≈ 6.03 µM)
[6]; L1210, 48 h
  IC50: 8.1 µg/mL (≈ 30.5 µM)
[1]; i.p., 1.25 mg/kg/day
  Means survival time: 19.8 days
  Survivors/Total: 7/10
[1]; i.p., 2.5 mg/kg/day
  Means survival time: 18.9 days
  Survivors/Total: 9/10
[1]; i.p., 5 mg/kg/day
  Means survival time: 20.0 days
  Survivors/Total: 10/10
[1]; i.p., 10 mg/kg/day
  Means survival time: 20.0 days
  Survivors/Total: 10/10
[1]; i.p., 20 mg/kg/day
  Means survival time: 20.0 days
  Survivors/Total: 10/10
[1]; irrespective of administration routes (i.p., p.o.), 1.25 to 20 mg/kg per day
  reducing mortality rate of mice infected with HSV-2: highly effective
[1]; p.o., 1.25 mg/kg/day
  Means survival time: 12.4 days
  Survivors/Total: 2/10
[1]; p.o., 2.5 mg/kg/day
  Means survival time: 14.7 days
  Survivors/Total: 4/10
[1]; p.o., 5 mg/kg/day
  Means survival time: 18.9 days
  Survivors/Total: 8/10
[1]; p.o., 10 mg/kg/day
  Means survival time: 19.8 days
  Survivors/Total: 9/10
[1]; p.o., 20 mg/kg/day
  Means survival time: 19.7 days
  Survivors/Total: 9/10
B hepatitis virus (HBV); HB611, 360 h
  IC50: 0.86 µg/mL (≈ 3.24 µM)
[7]; Human alphaherpesvirus 2, Vero, 48 h
  IC50: 0.13 µg/mL (≈ 0.49 µM)

## Nc1ncnc2c1ncn2[C@@H]1C[C@H](CO)[C@H]1CO [Compound 1, 9-[(1R,2R,3S)-2,3-Bis(hydroxymethyl)cyclobutane-1-yl] -adenine]
[2]; HeLa S3, 72 hours, growth inhibition
  IC50: 14 µg/mL (≈ 56.2 µM)
[3]; Human betaherpesvirus 5, 240 h, human embryonal fibroblast, A0169 strain, plaque formation, 10 days
  IC50: 12 µg/mL (≈ 48.1 µM)
[4]; MT-4 cell, cultured for 4 days, virus antigen
  IC50: 0.03 µg/mL (≈ 0.12 µM)
[5]; Human alphaherpesvirus 1, Vero cell, plaque formation, 48 hours
  IC50: 7.3 µg/mL (≈ 29.3 µM)
Human leukemia P388 cell; P388, 48 hours, growth inhibition
  IC50: 0.58 µg/mL (≈ 2.33 µM)
[6]; L1210, 48 hours, growth inhibition
  IC50: 1.1 µg/mL (≈ 4.41 µM)
B hepatitis virus (HBV); 360 h, HB611 cells, 15 days, HBV DNA
  IC50: 0.024 µg/mL (≈ 0.0963 µM)
[7]; Human alphaherpesvirus 2, Vero cell, plaque formation, 48 hours
  IC50: 8.9 µg/mL (≈ 35.7 µM)
